Results published in patent US12180193B2, “Accelerating fibrosarcoma protein degrading compounds and associated methods of use” (Arvinas Operations, Inc., priority 2020, dated 2024).

Columns and labels:
BRAF V600E = target: T1, BRAF V600E (Homo sapiens, UniProt P15056, V600E); experiment: Cellular assay of target protein degradation, T-Rex 293 cells stably transfected with HA-BRAF_V600E (HA immunofluorescence, high content imaging); format: cell-based; settings: T-Rex 293 HA-BRAF V600E; for DC50: half maximal degradation, read-out: BRaf V600E DC50; for Dmax: maximum degradation observed
T1 construct: expressed in transfected cells
T1 sequence (P15056 whole entry V600E): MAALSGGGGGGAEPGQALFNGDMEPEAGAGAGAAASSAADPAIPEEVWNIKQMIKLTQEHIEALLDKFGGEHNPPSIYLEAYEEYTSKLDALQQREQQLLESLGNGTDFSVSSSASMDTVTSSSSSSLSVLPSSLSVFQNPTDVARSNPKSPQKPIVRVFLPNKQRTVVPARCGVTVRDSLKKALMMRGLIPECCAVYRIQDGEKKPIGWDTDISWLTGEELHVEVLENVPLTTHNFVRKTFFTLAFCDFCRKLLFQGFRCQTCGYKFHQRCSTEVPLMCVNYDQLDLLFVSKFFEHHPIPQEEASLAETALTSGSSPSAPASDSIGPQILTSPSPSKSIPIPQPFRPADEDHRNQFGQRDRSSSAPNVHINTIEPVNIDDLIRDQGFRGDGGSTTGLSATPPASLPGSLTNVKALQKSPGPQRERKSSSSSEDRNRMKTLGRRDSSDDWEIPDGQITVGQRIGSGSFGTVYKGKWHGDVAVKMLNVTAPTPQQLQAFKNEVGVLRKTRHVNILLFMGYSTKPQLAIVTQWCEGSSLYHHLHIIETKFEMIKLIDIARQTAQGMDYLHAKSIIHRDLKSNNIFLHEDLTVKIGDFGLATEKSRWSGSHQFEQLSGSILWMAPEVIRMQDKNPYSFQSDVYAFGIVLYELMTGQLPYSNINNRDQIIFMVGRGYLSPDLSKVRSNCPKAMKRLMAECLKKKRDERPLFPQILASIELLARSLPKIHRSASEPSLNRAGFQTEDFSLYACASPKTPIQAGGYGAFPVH
In short: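 Degradation of the HA-tagged construct is measured after 24 h treatment at 37 °C across 1 μM to 0.1 nM in 0.1% DMSO, in doxycycline-induced (1 ng/mL) cells. DC50 and Dmax come from HA fluorescence imaging.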

BRAF G466V = target: T2, BRAF G466V (Homo sapiens, UniProt P15056, G466V); experiment: Cellular assay of target protein degradation, T-Rex 293 cells stably transfected with HA-BRAF G466V (HA immunofluorescence, high content imaging); format: cell-based; settings: T-Rex 293 HA-BRAF G466V; for DC50: half maximal degradation, read-out: BRaf G466V DC50; for Dmax: maximum degradation observed
T2 construct: expressed in transfected cells
T2 sequence (P15056 whole entry G466V): as the sequence (P15056 whole entry V600E) above, with G466V, E600V counted along it
In short: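 Dose range spans 30 nM to 3 pM (0.1% DMSO) over 24 hours at 37° C, in cells induced with 0.75 ng/mL doxycycline. Fixed cells are probed with anti-HA antibody overnight at 4° C, then imaged; half-maximal degradation and maximum degradation are derived.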

Row | Compound | DC50 (BRAF V600E) [nM] | Dmax (BRAF V600E) [%] | DC50 (BRAF G466V) [nM] | Dmax (BRAF G466V) [%]
1 | O=C1CC[C@@H](N2Cc3cc(N4CC5(CN(CC6CCN(c7ccc(-c8cnc9[nH]cc(C(=O)c%10c(F)ccc(NS(=O)(=O)N%11CC[C@@H](F)C%11)c%10F)c9c8)cc7)CC6)C5)C4)ccc3C2=O)C(=O)N1 [Compound 222, (3R)-N-{3-[5-(4-{4-[(6-{2-[(3R)-2,6-dioxopiperidin-3-yl]-1-oxo-2,3-dihydro-1H-isoindol-5-yl}-2,6-diazaspiro[3.3]heptan-2-yl)methyl]piperidin-1-yl}phenyl)-1H-pyrrolo[2,3-b]pyridine-3-carbonyl]-2,4-difluorophenyl}-3-fluoropyrrolidine-1-sulfonamide] | 5 to 50 | 35 to 70 | 1 to 10 | > 70
2 | O=C1CC[C@H](N2Cc3cc(N4CCC(CN5CCN(c6ccc(-c7cnc8[nH]cc(C(=O)c9c(F)ccc(NS(=O)(=O)N%10CC[C@@H](F)C%10)c9F)c8c7)cc6)CC5)CC4)ccc3C2=O)C(=O)N1 [Compound 223, (3R)-N-{3-[5-(4-{4-[(1-{2-[(3S)-2,6-dioxopiperidin-3-yl]-1-oxo-2,3-dihydro-1H-isoindol-5-yl}piperidin-4-yl)methyl]piperazin-1-yl}phenyl)-1H-pyrrolo [2,3-b]pyridine-3-carbonyl]-2,4-difluorophenyl}-3-fluoropyrrolidine-1-sulfonamide] | 5 to 50 | 35 to 70 | 1 to 10 | > 70
3 | O=C1CC[C@@H](N2Cc3cc(N4CCC(CN5CCN(c6ccc(-c7cnc8[nH]cc(C(=O)c9c(F)ccc(NS(=O)(=O)N%10CC[C@@H](F)C%10)c9F)c8c7)cc6)CC5)CC4)ccc3C2=O)C(=O)N1 [Compound 224, (3R)-N-{3-[5-(4-{4-[(1-{2-[(3R)-2,6-dioxopiperidin-3-yl]-1-oxo-2,3-dihydro-1H-isoindol-5-yl}piperidin-4-yl)methyl]piperazin-1-yl}phenyl)-1H-pyrrolo [2,3-b]pyridine-3-carbonyl]-2,4-difluorophenyl}-3-fluoropyrrolidine-1-sulfonamide] | 5 to 50 | 35 to 70 | 1 to 10 | > 70
4 | COc1cc(N2CCC(CN3CC4(C3)CN(c3ccc(-c5cnc6[nH]cc(C(=O)c7c(F)ccc(NS(=O)(=O)N8CC[C@@H](F)C8)c7F)c6c5)cc3)C4)CC2)cc2c1C(=O)N([C@@H]1CCC(=O)NC1=O)C2 [Compound 225, (3R)-N-{3-[5-(4-{6-[(1-{2-[(3R)-2,6-dioxopiperidin-3-yl]-7-methoxy-1-oxo-2,3-dihydro-1H-isoindol-5-yl}piperidin-4-yl)methyl]-2,6-diazaspiro[3.3]heptan-2-yl}phenyl)-1H-pyrrolo[2,3-b]pyridine-3-carbonyl]-2,4-difluorophenyl}-3-fluoropyrrolidine-1-sulfonamide] | 5 to 50 | 35 to 70 | 1 to 10 | > 70
5 | COc1cc(N2CCC(CN3CC4(C3)CN(c3ccc(-c5cnc6[nH]cc(C(=O)c7c(F)ccc(NS(=O)(=O)N8CC[C@@H](F)C8)c7F)c6c5)cc3)C4)CC2)cc2c1C(=O)N([C@H]1CCC(=O)NC1=O)C2 [Compound 226, (3R)-N-{3-[5-(4-{6-[(1-{2-[(3S)-2,6-dioxopiperidin-3-yl]-7-methoxy-1-oxo-2,3-dihydro-1H-isoindol-5-yl}piperidin-4-yl)methyl]-2,6-diazaspiro[3.3]heptan-2-yl}phenyl)-1H-pyrrolo[2,3-b]pyridine-3-carbonyl]-2,4-difluorophenyl}-3-fluoropyrrolidine-1-sulfonamide] | 5 to 50 | < 35 | 1 to 10 | > 70
6 | O=C1CCC(N2Cc3cc(N4CC(C5CN(CC6CCN(c7ccc(-c8cnc9[nH]cc(C(=O)c%10c(F)ccc(NS(=O)(=O)N%11CC[C@@H](F)C%11)c%10F)c9c8)cc7)CC6)C5)C4)ccc3C2=O)C(=O)N1 (stereo partly drawn) [Compound 227, (3R)-N-[3-(5-{4-[4-({1′-[2-(2,6-dioxopiperidin-3-yl)-1-oxo-2,3-dihydro-1H-isoindol-5-yl]-[3,3′-biazetidin]-1-yl}methyl)piperidin-1-yl]phenyl}-1H-pyrrolo[2,3-b]pyridine-3-carbonyl)-2,4-difluorophenyl]-3-fluoropyrrolidine-1-sulfonamide] | 5 to 50 | < 35 | 1 to 10 | > 70
7 | CCCS(=O)(=O)Nc1ccc(F)c(C(=O)c2c[nH]c3ncc(-c4ccc(N5CCC(CN6CC7(C6)CN(c6ccc8c(c6)CN([C@H]6CCC(=O)NC6=O)C8=O)C7)CC5)cc4)cc23)c1F [Compound 228, N-{3-[5-(4-{4-[(6-{2-[(3S)-2,6-dioxopiperidin-3-yl]-1-oxo-2,3-dihydro-1H-isoindol-5-yl}-2,6-diazaspiro[3.3]heptan-2-yl)methyl]piperidin-1-yl}phenyl)-1H-pyrrolo [2,3-b]pyridine-3-carbonyl]-2,4-difluorophenyl} propane-1-sulfonamide] | 5 to 50 | 35 to 70 | < 1 | > 70
8 | CCCS(=O)(=O)Nc1ccc(F)c(C(=O)c2c[nH]c3ncc(-c4ccc(N5CCC(CN6CC7(C6)CN(c6ccc8c(c6)CN([C@@H]6CCC(=O)NC6=O)C8=O)C7)CC5)cc4)cc23)c1F [Compound 229, N-{3-[5-(4-{4-[(6-{2-[(3R)-2,6-dioxopiperidin-3-yl]-1-oxo-2,3-dihydro-1H-isoindol-5-yl}-2,6-diazaspiro[3.3]heptan-2-yl)methyl]piperidin-1-yl}phenyl)-1H-pyrrolo [2,3-b]pyridine-3-carbonyl]-2,4-difluorophenyl} propane-1-sulfonamide] | 5 to 50 | 35 to 70 | 1 to 10 | > 70
9 | O=C1CC[C@H](N2Cc3cc(C4CCN(CC5CCN(c6ccc(-c7cnc8[nH]cc(C(=O)c9c(F)ccc(NS(=O)(=O)N%10CCCC%10)c9F)c8c7)cc6)CC5)CC4)ccc3C2=O)C(=O)N1 [Compound 230, N-{3-[5-(4-{4-[(4-{2-[(3S)-2,6-dioxopiperidin-3-yl]-1-oxo-2,3-dihydro-1H-isoindol-5-yl}piperidin-1-yl)methyl]piperidin-1-yl}phenyl)-1H-pyrrolo[2,3-b]pyridine-3-carbonyl]-2,4-difluorophenyl}pyrrolidine-1-sulfonamide] | 5 to 50 | 35 to 70 | < 1 | > 70
10 | O=C1CC[C@@H](N2Cc3cc(C4CCN(CC5CCN(c6ccc(-c7cnc8[nH]cc(C(=O)c9c(F)ccc(NS(=O)(=O)N%10CCCC%10)c9F)c8c7)cc6)CC5)CC4)ccc3C2=O)C(=O)N1 [Compound 231, N-{3-[5-(4-{4-[(4-{2-[(3R)-2,6-dioxopiperidin-3-yl]-1-oxo-2,3-dihydro-1H-isoindol-5-yl}piperidin-1-yl)methyl]piperidin-1-yl}phenyl)-1H-pyrrolo[2,3-b]pyridine-3-carbonyl]-2,4-difluorophenyl}pyrrolidine-1-sulfonamide] | 5 to 50 | 35 to 70 | 1 to 10 | > 70
11 | O=C1CC[C@H](N2Cc3cc(C4CCN(CC5CCN(c6ccc(-c7cnc8[nH]cc(C(=O)c9c(F)ccc(NS(=O)(=O)N%10CCC(F)(F)C%10)c9F)c8c7)cc6)CC5)CC4)ccc3C2=O)C(=O)N1 [Compound 232, N-{3-[5-(4-{4-[(4-{2-[(3S)-2,6-dioxopiperidin-3-yl]-1-oxo-2,3-dihydro-1H-isoindol-5-yl}piperidin-1-yl)methyl]piperidin-1-yl}phenyl)-1H-pyrrolo[2,3-b]pyridine-3-carbonyl]-2,4-difluorophenyl}-3,3-difluoropyrrolidine-1-sulfonamide] | 5 to 50 | 35 to 70 | 1 to 10 | > 70
12 | O=C1CC[C@@H](N2Cc3cc(C4CCN(CC5CCN(c6ccc(-c7cnc8[nH]cc(C(=O)c9c(F)ccc(NS(=O)(=O)N%10CCC(F)(F)C%10)c9F)c8c7)cc6)CC5)CC4)ccc3C2=O)C(=O)N1 [Compound 233, N-{3-[5-(4-{4-[(4-{2-[(3R)-2,6-dioxopiperidin-3-yl]-1-oxo-2,3-dihydro-1H-isoindol-5-yl}piperidin-1-yl)methyl]piperidin-1-yl}phenyl)-1H-pyrrolo[2,3-b]pyridine-3-carbonyl]-2,4-difluorophenyl}-3,3-difluoropyrrolidine-1-sulfonamide] | 5 to 50 | 35 to 70 | 1 to 10 | > 70
13 | CCCS(=O)(=O)Nc1ccc(F)c(C(=O)c2c[nH]c3ncc(-c4ccc(N5CCC(CN6CCC(c7ccc8c(c7)CN([C@H]7CCC(=O)NC7=O)C8=O)CC6)CC5)cc4)cc23)c1F [Compound 234, N-{3-[5-(4-{4-[(4-{2-[(3S)-2,6-dioxopiperidin-3-yl]-1-oxo-2,3-dihydro-1H-isoindol-5-yl}piperidin-1-yl)methyl]piperidin-1-yl}phenyl)-1H-pyrrolo[2,3-b]pyridine-3-carbonyl]-2,4-difluorophenyl}propane-1-sulfonamide] | 5 to 50 | 35 to 70 | < 1 | > 70
14 | CCCS(=O)(=O)Nc1ccc(F)c(C(=O)c2c[nH]c3ncc(-c4ccc(N5CCC(CN6CCC(c7ccc8c(c7)CN([C@@H]7CCC(=O)NC7=O)C8=O)CC6)CC5)cc4)cc23)c1F [Compound 235, N-{3-[5-(4-{4-[(4-{2-[(3R)-2,6-dioxopiperidin-3-yl]-1-oxo-2,3-dihydro-1H-isoindol-5-yl}piperidin-1-yl)methyl]piperidin-1-yl}phenyl)-1H-pyrrolo[2,3-b]pyridine-3-carbonyl]-2,4-difluorophenyl}propane-1-sulfonamide] | 5 to 50 | 35 to 70 | 1 to 10 | > 70
